Entries after “also recorded” stand apart in the source; their conditions may differ.
Columns and labels:
CYP2C9 [1] = molecular target: T1, CYP2C9 (Homo sapiens, UniProt P11712); test: Example 1 pharmacokinetic interaction study, rivoceranib 200 mg + Cooperstown 5+1 cocktail: warfarin probe
CYP2C9 [2] = molecular target: T1, CYP2C9; test: Example 2 phase 1 drug-drug interaction study, rivoceranib 700 mg QD + 5+1 cocktail: S- and R-warfarin probe; parameters: AUC(0-∞), Mean (CV %), 5 + 1 cocktail alone / AUC(0-∞), Geometric LSM, 5 + 1 cocktail alone / AUC(0-∞), Mean (CV %), Rivoceranib plus 5 + 1 cocktail / AUC(0-∞), Geometric LSM, Rivoceranib plus 5 + 1 cocktail / AUC(0-t), Mean (CV %), 5 + 1 cocktail alone / AUC(0-t), Geometric LSM, 5 + 1 cocktail alone / AUC(0-t), Mean (CV %), Rivoceranib plus 5 + 1 cocktail / AUC(0-t), Geometric LSM, Rivoceranib plus 5 + 1 cocktail: unit not given beside the values; settings: for AUC(0-t), Geometric LSM, Rivoceranib plus 5 + 1 cocktail / AUC(0-t), Mean (CV %), Rivoceranib plus 5 + 1 cocktail / AUC(0-∞), Geometric LSM, Rivoceranib plus 5 + 1 cocktail / AUC(0-∞), Mean (CV %), Rivoceranib plus 5 + 1 cocktail / Cmax, Geometric LSM, Rivoceranib plus 5 + 1 cocktail / Cmax, Mean (CV %), Rivoceranib plus 5 + 1 cocktail / AUC(0-t), Geometric LSM, 5 + 1 cocktail alone / AUC(0-t), Mean (CV %), 5 + 1 cocktail alone / AUC(0-∞), Geometric LSM, 5 + 1 cocktail alone / AUC(0-∞), Mean (CV %), 5 + 1 cocktail alone / Cmax, Geometric LSM, 5 + 1 cocktail alone / Cmax, Mean (CV %), 5 + 1 cocktail alone: healthy volunteers; for AUC(0-t), Geometric LSM, Rivoceranib plus 5 + 1 cocktail / AUC(0-t), Mean (CV %), Rivoceranib plus 5 + 1 cocktail / AUC(0-∞), Geometric LSM, Rivoceranib plus 5 + 1 cocktail / AUC(0-∞), Mean (CV %), Rivoceranib plus 5 + 1 cocktail / Cmax, Geometric LSM, Rivoceranib plus 5 + 1 cocktail / Cmax, Mean (CV %), Rivoceranib plus 5 + 1 cocktail: 5+1 cocktail day 11 + rivoceranib 700 mg QD days 6-15; for AUC(0-t), Geometric LSM, 5 + 1 cocktail alone / AUC(0-t), Mean (CV %), 5 + 1 cocktail alone / AUC(0-∞), Geometric LSM, 5 + 1 cocktail alone / AUC(0-∞), Mean (CV %), 5 + 1 cocktail alone / Cmax, Geometric LSM, 5 + 1 cocktail alone / Cmax, Mean (CV %), 5 + 1 cocktail alone: single oral 5+1 cocktail dose day 1, fasted; for increase in AUC0-inf when co-administered with rivoceranib / increase in Cmax when co-administered with rivoceranib: rivoceranib 700 mg
Method: (§1) This example describes a pharmacokinetic interaction study in healthy human volunteers dosed with 700 mg rivoceranib and a mixture of cytochrome P450 enzyme (CYP1A2, CYP2C9, CYP2C19, CYP2D6, and CYP3A) substrates.
(§2) The primary objective of the study was to evaluate the effect of rivoceranib 700 mg once daily (QD) on the pharmacokinetics (PK) of various CYP substrates to determine drug-drug interactions of rivoceranib.
(§3) This was an open-label, 2-treatment, fixed-sequence drug-drug interaction phase 1 study designed to evaluated the impact of multiple oral doses of 700 mg rivoceranib on the single-dose PK of CYP enzyme substrates administered in a 5+1 Cooperstown probe cocktail (caffeine [CYP1A2], S- and R-warfarin [CYP2C9]+vitamin K, omeprazole [CYP2C19], dextromethorphan [CYP2D6], and midazolam [CYP3A]) in healthy volunteers (N=32). On day 1, volunteers received a single dose of the 5+1 cocktail comprising 200 mg caffeine, 10 mg S- and R-warfarin with 10 mg vitamin K, 40 mg omeprazole, 30 mg dextromethorphan, and 2 mg midazolam. Blood samples were collected pre-dose on day 1 and up to 120 hours post-dose for PK analyses of the substrates in the 5+1 cocktail. On days 6 to 15, volunteers received 700 mg rivoceranib once daily for 10 consecutive days with a single dose of the 5+1 cocktail administered on day 11. Blood samples were collected pre-dose on day 11 and up to 120 hours post cocktail dosing (day 16) for PK analyses. Each dosing was under fasted conditions. There was a washout period of 5 days between day 1 dosing and the first rivoceranib dose on day 6; the 2 cocktail dosings were spaced by 10 days.

CYP1A2 [3] = molecular target: T2, CYP1A2 (Homo sapiens, UniProt P05177); settings: in vivo, po
T2 sequence (P05177 1-516): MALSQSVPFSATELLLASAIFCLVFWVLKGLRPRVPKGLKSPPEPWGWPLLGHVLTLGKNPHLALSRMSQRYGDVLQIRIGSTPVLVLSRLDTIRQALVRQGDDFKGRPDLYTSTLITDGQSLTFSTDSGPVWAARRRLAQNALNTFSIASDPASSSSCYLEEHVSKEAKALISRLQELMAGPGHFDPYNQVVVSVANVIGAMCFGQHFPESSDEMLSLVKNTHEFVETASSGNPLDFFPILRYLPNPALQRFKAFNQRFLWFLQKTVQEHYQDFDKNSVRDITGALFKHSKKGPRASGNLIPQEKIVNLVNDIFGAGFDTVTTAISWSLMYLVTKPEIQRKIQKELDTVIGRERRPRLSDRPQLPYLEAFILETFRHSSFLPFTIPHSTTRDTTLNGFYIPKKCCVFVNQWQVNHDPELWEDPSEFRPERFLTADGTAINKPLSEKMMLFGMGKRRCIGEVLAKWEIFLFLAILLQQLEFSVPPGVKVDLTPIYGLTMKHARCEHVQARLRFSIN

CYP1A2 [4] = molecular target: T2, CYP1A2; test: Example 2 phase 1 drug-drug interaction study, rivoceranib 700 mg QD + 5+1 cocktail: caffeine probe; settings: for AUC(0-t) / AUC(0-inf) / Cmax: human, in vivo
Method: as §1, §2, §3

CYP2C19 [5] = molecular target: T3, CYP2C19 (Homo sapiens, UniProt P33261); test: Example 2 phase 1 drug-drug interaction study, rivoceranib 700 mg QD + 5+1 cocktail: omeprazole probe
Method: as §1, §2, §3

CYP2C19 [6] = molecular target: T3, CYP2C19; settings: in vivo, po
[7] = human, in vivo
Method: as §3

[8] = rivoceranib 200 mg once daily, oral substrate
[9] = oral, probe caffeine, Geometric LSM, Rivoceranib plus 5 + 1 cocktail, healthy volunteers, 5+1 cocktail day 11 + rivoceranib 700 mg QD days 6-15
[10] = oral, probe caffeine, Mean (CV %), Rivoceranib plus 5 + 1 cocktail, healthy volunteers, 5+1 cocktail day 11 + rivoceranib 700 mg QD days 6-15
[11] = po, probe caffeine, Geometric LSM, 5 + 1 cocktail alone, healthy volunteers, single oral 5+1 cocktail dose day 1, fasted
[12] = po, probe caffeine, Mean (CV %), 5 + 1 cocktail alone, healthy volunteers, single oral 5+1 cocktail dose day 1, fasted
[13] = rivoceranib 700 mg QD, 100*LSM Rivoceranib Plus 5+1 Cocktail/LSM 5+1 Cocktail Alone
[14] = po, Geometric LSM, 5 + 1 cocktail alone
[15] = po, Mean (CV %), 5 + 1 cocktail alone

T1 sequence (P11712 whole entry): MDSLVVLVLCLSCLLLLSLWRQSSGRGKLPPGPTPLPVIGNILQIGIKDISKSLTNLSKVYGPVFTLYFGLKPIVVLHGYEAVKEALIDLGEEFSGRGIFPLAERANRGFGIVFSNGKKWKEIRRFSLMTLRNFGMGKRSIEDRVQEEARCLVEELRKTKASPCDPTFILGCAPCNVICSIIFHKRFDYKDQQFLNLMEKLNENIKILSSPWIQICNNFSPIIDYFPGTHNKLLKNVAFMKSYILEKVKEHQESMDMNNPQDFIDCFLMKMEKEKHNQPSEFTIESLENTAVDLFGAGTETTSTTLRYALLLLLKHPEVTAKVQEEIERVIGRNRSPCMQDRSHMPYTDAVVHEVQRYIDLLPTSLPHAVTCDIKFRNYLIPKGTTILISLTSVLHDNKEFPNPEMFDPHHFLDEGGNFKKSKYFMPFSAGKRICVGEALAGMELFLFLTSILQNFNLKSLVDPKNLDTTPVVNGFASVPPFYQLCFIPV
T3 sequence (P33261 whole entry): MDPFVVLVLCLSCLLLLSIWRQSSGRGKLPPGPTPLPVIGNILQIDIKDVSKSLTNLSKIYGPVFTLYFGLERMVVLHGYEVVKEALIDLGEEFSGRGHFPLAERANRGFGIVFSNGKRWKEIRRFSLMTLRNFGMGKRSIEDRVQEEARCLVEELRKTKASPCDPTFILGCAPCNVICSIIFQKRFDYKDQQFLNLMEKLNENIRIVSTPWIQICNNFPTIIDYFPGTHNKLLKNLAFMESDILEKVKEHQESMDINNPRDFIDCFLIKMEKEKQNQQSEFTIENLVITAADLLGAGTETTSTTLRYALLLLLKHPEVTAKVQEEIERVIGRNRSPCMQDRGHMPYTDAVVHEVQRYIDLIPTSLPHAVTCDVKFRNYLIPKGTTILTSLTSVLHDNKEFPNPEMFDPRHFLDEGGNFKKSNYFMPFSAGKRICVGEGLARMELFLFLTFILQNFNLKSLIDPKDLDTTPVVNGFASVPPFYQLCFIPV

## CC(=O)C[C@H](c1ccccc1)c1c(O)c2ccccc2oc1=O [R-warfarin]
CYP2C9 [1]; rivoceranib 200 mg daily, plasma, FIG. 4 and Table 5
  levels on coadministration with rivoceranib: relatively unaffected
CYP2C9 [2]
  AUC(0-t), Geometric LSM, Rivoceranib plus 5 + 1 cocktail: 36,090
  AUC(0-t), Mean (CV %), Rivoceranib plus 5 + 1 cocktail: 36,660
  AUC(0-∞), Geometric LSM, Rivoceranib plus 5 + 1 cocktail: 48,560
  AUC(0-∞), Mean (CV %), Rivoceranib plus 5 + 1 cocktail: 49,220
  Cmax, Geometric LSM, Rivoceranib plus 5 + 1 cocktail: 804.9 ng/mL
  Cmax, Mean (CV %), Rivoceranib plus 5 + 1 cocktail: 816.0 ng/mL
  AUC(0-t), Geometric LSM, 5 + 1 cocktail alone: 29,860
  AUC(0-t), Mean (CV %), 5 + 1 cocktail alone: 29,860
  AUC(0-∞), Geometric LSM, 5 + 1 cocktail alone: 36,750
  AUC(0-∞), Mean (CV %), 5 + 1 cocktail alone: 36,750
  Cmax, Geometric LSM, 5 + 1 cocktail alone: 701.2 ng/mL
  Cmax, Mean (CV %), 5 + 1 cocktail alone: 701.2 ng/mL
  increase in AUC0-inf when co-administered with rivoceranib: 32%
  increase in Cmax when co-administered with rivoceranib: 15%

## CC(=O)C[C@@H](c1ccccc1)c1c(O)c2ccccc2oc1=O [S-warfarin]
CYP2C9 [1]; [8]
  increase in AUC0-∞ with coadministration with rivoceranib: 28%
  increase in Cmax with coadministration with rivoceranib: 5%
CYP2C9 [2]
  AUC(0-t), Geometric LSM, Rivoceranib plus 5 + 1 cocktail: 28,490
  AUC(0-t), Mean (CV %), Rivoceranib plus 5 + 1 cocktail: 28,920
  AUC(0-∞), Geometric LSM, Rivoceranib plus 5 + 1 cocktail: 34,670
  AUC(0-∞), Mean (CV %), Rivoceranib plus 5 + 1 cocktail: 34,780
  Cmax, Geometric LSM, Rivoceranib plus 5 + 1 cocktail: 832.5 ng/mL
  Cmax, Mean (CV %), Rivoceranib plus 5 + 1 cocktail: 840.2 ng/mL
  AUC(0-t), Geometric LSM, 5 + 1 cocktail alone: 18.880
  AUC(0-t), Mean (CV %), 5 + 1 cocktail alone: 18,880
  AUC(0-∞), Geometric LSM, 5 + 1 cocktail alone: 20,640
  AUC(0-∞), Mean (CV %), 5 + 1 cocktail alone: 20,640
  Cmax, Geometric LSM, 5 + 1 cocktail alone: 701.1 ng/mL
  Cmax, Mean (CV %), 5 + 1 cocktail alone: 701.1 ng/mL
  increase in AUC0-inf when co-administered with rivoceranib: 68%
  increase in Cmax when co-administered with rivoceranib: 19%

## Cn1c(=O)c2c(ncn2C)n(C)c1=O [caffeine]
CYP1A2 [3]
  AUC(0-t), Geometric LS Mean, Cooperstown Cocktail Alone: 10.6274
  AUC(0-∞), Geometric LS Mean, Cooperstown Cocktail Alone: 10.6463
  Cmax, Geometric LS Mean, Cooperstown Cocktail Alone: 8.4984
CYP1A2 [4]; [9]
  AUC(0-t): 43200 ng·h/mL
  AUC(0-inf): 45400 ng·h/mL
  Cmax: 5210 ng/mL
CYP1A2 [4]; [10]
  AUC(0-t): 44500 ng·h/mL
  AUC(0-inf): 47600 ng·h/mL
  Cmax: 5330 ng/mL
CYP1A2 [4]; po, 200 mg, probe caffeine, Geometric LSM, 5 + 1 cocktail alone, healthy volunteers, single oral 5+1 cocktail dose day 1, fasted
  AUC(0-t): 52600 ng·h/mL
CYP1A2 [4]; po, 200 mg, probe caffeine, Mean (CV %), 5 + 1 cocktail alone, healthy volunteers, single oral 5+1 cocktail dose day 1, fasted
  AUC(0-t): 52600 ng·h/mL
CYP1A2 [4]; [11]
  AUC(0-inf): 53400 ng·h/mL
  Cmax: 5190 ng/mL
CYP1A2 [4]; [12]
  AUC(0-inf): 53400 ng·h/mL
  Cmax: 5190 ng/mL
CYP1A2 [4]; rivoceranib 700 mg QD
  change of Cmax with rivoceranib: relatively unchanged; also recorded: did not change
  reduction of AUC0-inf by rivoceranib: 15%
CYP1A2 [4]; [13]
  AUC(0-∞), Geometrical mean Ratio, % (90% CI): 84.87%
  Cmax, Geometrical mean Ratio, % (90% CI): 100.41%

## COc1ccc2[nH]c([S+]([O-])Cc3ncc(C)c(OC)c3C)nc2c1 (stereo not drawn) [omeprazole]
CYP2C19 [5]; rivoceranib 700 mg
  increase in AUC0-inf with rivoceranib: 3.3 fold
  increase in Cmax with rivoceranib: 2 fold
CYP2C19 [5]; [13]
  AUC(0-t), Geometrical mean Ratio, % (90% CI): 259.87%
  AUC(0-∞), Geometrical mean Ratio, % (90% CI): 272.50%
  Cmax, Geometrical mean Ratio, % (90% CI): 198.80%
CYP2C19 [6]
  AUC(0-t), Geometric LS Mean, Cooperstown Cocktail Alone: 7.3711
  AUC(0-∞), Geometric LS Mean, Cooperstown Cocktail Alone: 7.5365
  Cmax, Geometric LS Mean, Cooperstown Cocktail Alone: 6.3720

## Cn1c(=O)[nH]c2ncn(C)c2c1=O [paraxanthine]
CYP1A2 [3]
  AUC(0-t), Geometric LS Mean, Cooperstown Cocktail Alone: 10.0780
  AUC(0-∞), Geometric LS Mean, Cooperstown Cocktail Alone: 10.1025
  Cmax, Geometric LS Mean, Cooperstown Cocktail Alone: 7.1157
CYP1A2 [4]; [14]
  AUC(0-t): 31000 ng·h/mL
  AUC(0-inf): 31700 ng·h/mL
  Cmax: 1440 ng/mL
CYP1A2 [4]; [15]
  AUC(0-t): 31000 ng·h/mL
  AUC(0-inf): 28700 ng·h/mL
  Cmax: 1440 ng/mL

## N#CC1(c2ccc(NC(=O)c3cccnc3NCc3ccncc3)cc2)CCCC1 [rivoceranib, N-[4-(1-cyanocyclopentyl)phenyl]-2-{[(pyridin-4-yl)methyl]amino}pyridine-3-carboxamide]
[7]
  volunteers who had a TEAE (number): 16
  volunteers who had a TEAE (percent): 53.30%

— patent US20260207573A1, “EFFECT OF RIVOCERANIB ON CYTOCHROME P450 ENZYME SUBSTRATES” (ELEVAR THERAPEUTICS, INC., priority 2022, published 2026)
